Laboratory results from US20120231448A1, “LOW CELL TOXICITY […]” (priority 2011, published 2012).

Legend:
[1] = tested on: Tobacco Calli cells transformed with the Hygromycin B phosphotransferase gene; assay: LD 50 for resistant cells; conditions: for LD 50 for different impurities for resistant cells: isolated impurities added to media
[2] = tested on: Fungi cell; assay: LD 50 hygromycin B concentration for sensitive cells; assay type: cell-based
[3] = tested on: Tobacco Calli cells; assay: as above; assay type: cell-based
[4] = tested on: 293 cells transformed with the Hygromycin B phosphotransferase gene; assay: LD 50 for resistant cells; conditions: resistant 293 cells; for LD 50 for different impurities for resistant cells: isolated impurities added to media
[5] = tested on: Escherichia Coli; assay: LD 50 hygromycin B concentration for sensitive cells; assay type: cell-based
[6] = tested on: resistant cells; conditions: comparison between batches / impurities
[7] = tested on: 293 cell; assay: LD 50 hygromycin B concentration for sensitive cells; assay type: cell-based; conditions: sensitive 293 cell

Compound | LD 50 hygromycin B concentration for resistant cells ([1]; hygromycin B batches) [µg/mL] | LD 50 hygromycin B concentration for sensitive cells [2] [µg/mL] | LD 50 hygromycin B concentration for sensitive cells [3] [µg/mL] | LD 50 hygromycin B concentration for resistant cells ([4]; hygromycin B batches) [µg/mL] | LD 50 hygromycin B concentration for sensitive cells [5] [µg/mL] | toxicity to resistant cells (in words) [6] | LD 50 hygromycin B concentration for sensitive cells [7] [µg/mL] | LD 50 for different impurities for resistant cells [1] [µg/mL] | LD 50 for different impurities for resistant cells [4] [µg/mL]
CN[C@H]1C[C@@H](N)[C@H](O)[C@@H](O[C@@H]2O[C@H](CO)[C@H](O)[C@@H]3OC4(O[C@H]23)O[C@H]([C@@H](N)CO)[C@H](O)[C@H](O)[C@H]4O)[C@@H]1O (some centres unmarked) [Batch T-94, hygromycin B] | 490 | 14.2 | 4.7 | 394 | 8.2 | lower toxicity to resistant cells | 8.5 |  | 
NC1CC(N)C(O)C(OCC(O)C(O)C(O)C(O)CO)C1O (centres unmarked) [Impurity D] |  |  |  |  |  |  |  | 0.5 | 1.7
Destomic acid [Impurity A] |  |  |  |  |  |  |  | 193 | 240
